One assay addresses T1, human kappa receptor (Homo sapiens, UniProt P41145).
T1 construct: expressed in transfected cells
Description: Opioid receptor binding assay, κ, [3H]U69593, HEK 293 cell membranes. The procedure:
(§1) Receptor binding assay: Cell membrane preparations were obtained from HEK 293-stable transfectants expressing either the murine δ or μ or the human κ receptor. Opioid receptor binding assays were conducted in duplicate on membrane preparations that had been resuspended in 50 mM Tris-HCl, pH 7.5, utilizing [^3H]DPDPE, [^3H]DAMGO and [^3H]U69593 as radiologand for δ, μ, and κ respectively and 10 μM cyclazocine to define non-specific binding. Following a 1 hour incubation on ice, binding assays were terminated by filtration through Whatman GF/B filters. Filters were soaked in Ecoscint liquid scintillation solution (National Diagnostics, Manville, N.J.) and filter-bound radioactivity was measured using a Packard Tri-Carb 2100 TR liquid scintillation analyzer. Receptor binding data was analyzed by non-linear regression of saturation and competition curves using Prisim 3.0 software (GraphPad Software, San Diego, Calif.). Protein concentrations were determined with the Bio-Rad protein using bovine serum albumin as the standard.

Another assay deals with T2, delta receptor (Mus musculus, UniProt P32300).
T2 construct: expressed in transfected cells
T2 sequence (P32300 whole entry): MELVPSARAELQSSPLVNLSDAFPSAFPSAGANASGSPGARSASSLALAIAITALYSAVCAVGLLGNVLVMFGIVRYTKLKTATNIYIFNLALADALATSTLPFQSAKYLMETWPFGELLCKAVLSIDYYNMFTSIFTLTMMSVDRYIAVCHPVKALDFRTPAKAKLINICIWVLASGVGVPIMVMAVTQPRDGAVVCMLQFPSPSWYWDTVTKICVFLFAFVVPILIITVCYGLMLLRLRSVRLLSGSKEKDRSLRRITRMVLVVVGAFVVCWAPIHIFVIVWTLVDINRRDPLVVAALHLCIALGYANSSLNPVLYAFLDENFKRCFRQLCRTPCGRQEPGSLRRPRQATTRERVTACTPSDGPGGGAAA
Description: Opioid receptor binding assay, δ, [3H]DPDPE, HEK 293 cell membranes. Also noted: species or system rat. The note with it: for Selectivity κ/δ / Selectivity μ/δ: ratio of IC50 values; for IC50: compounds of Formula II, Table III. The procedure: as §1

For assay [1], the target named is T3, δ-receptor (Mus musculus, UniProt P32300). Description: Function at δ receptor (receptor down regulation assay, HEK 293 cells expressing FLAG-tagged δ-receptor). The class given is cell-based. Set-up: FLAG; expressed in transfected cells; host or cells: HEK 293 (G418 selection). The note with it: for Function at δ: compounds of Formula I. The procedure: Receptor down regulation assays: HEK 293 cells expressing the FLAG-tagged δ-receptor were grown to near confluence in 100 mm dishes in DMEM media supplemented with 10% fetal calf serum and 0.25 mg/ml G418. Media was replaced with serum-free media prior to overnight incubation with 10 μM or 20 μM of DOP or control compound. Media was aspirated and cell washed twice with cold PBS. Cell homogenates were collected and further washed trice with 50 mM TRIS-HCl, pH 7.5. Protein concentration was measured using Bio-Rad Bradford reagent and equal amount of protein (50 μg) was used for binding assay. Binding assays were performed using [^3H]diprenorphine as the radioactive ligand. Binding assays were conducted as described above.
T3 sequence (P32300 whole entry): as above

In a further assay the target is T4, mu receptor (Mus musculus, UniProt P42866).
T4 construct: expressed in transfected cells
T4 sequence (P42866 whole entry): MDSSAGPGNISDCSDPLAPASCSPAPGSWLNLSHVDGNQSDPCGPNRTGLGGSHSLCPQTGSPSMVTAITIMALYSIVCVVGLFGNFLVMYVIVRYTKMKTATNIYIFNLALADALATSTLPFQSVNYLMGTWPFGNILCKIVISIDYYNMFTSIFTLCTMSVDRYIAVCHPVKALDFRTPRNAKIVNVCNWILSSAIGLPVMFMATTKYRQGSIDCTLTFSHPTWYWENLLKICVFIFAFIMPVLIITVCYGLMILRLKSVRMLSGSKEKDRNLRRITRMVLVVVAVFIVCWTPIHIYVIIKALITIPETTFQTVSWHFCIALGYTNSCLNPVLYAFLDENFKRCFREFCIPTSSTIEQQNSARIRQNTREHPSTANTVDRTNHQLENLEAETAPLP
The assay can be described thus: Opioid receptor binding assay, μ, [3H]DAMGO, HEK 293 cell membranes. Set-up: species or system rat. The note with it: compounds of Formula II, Table III. The protocol: as §1, with “Opioid” for “Receptor binding assay: Cell membrane preparations were obtained from HEK 293-stable transfectants expressing either the murine δ or μ or the human κ receptor. Opioid”

A further assay concerns the target T5, mu opioid receptor (Mus musculus, UniProt P42866).
T5 construct: expressed in transfected cells
The assay can be described thus: Function at the mu opioid receptor. The note with it: Table III.

Another assay deals with T6, kappa opioid receptor (Homo sapiens, UniProt P41145).
T6 construct: expressed in transfected cells
T6 sequence (P41145 whole entry): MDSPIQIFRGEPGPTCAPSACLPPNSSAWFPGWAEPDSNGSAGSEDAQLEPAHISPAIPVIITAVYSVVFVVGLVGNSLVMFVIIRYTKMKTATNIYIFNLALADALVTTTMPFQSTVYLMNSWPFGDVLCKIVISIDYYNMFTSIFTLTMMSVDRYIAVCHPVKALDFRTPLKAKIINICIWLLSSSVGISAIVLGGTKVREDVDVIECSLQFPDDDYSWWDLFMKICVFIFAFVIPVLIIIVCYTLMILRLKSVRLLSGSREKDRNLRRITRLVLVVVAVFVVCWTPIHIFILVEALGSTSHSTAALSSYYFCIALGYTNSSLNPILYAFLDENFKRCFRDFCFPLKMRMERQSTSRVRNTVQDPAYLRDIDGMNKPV
Description: Function at the kappa opioid receptor. The note with it: Table III.

The target of assay [2] is T3, δ-receptor. The note with it: literature values for comparison compounds; cited from earlier work.
Setting [3] is: inhibition of [3H]U69593, HEK 293 cell membrane, compounds of Formula I, read-out: IC50 (nM) κ.
Setting [4] is: compounds of Formula II, Table III, read-out: IC50 κ.

Structures are written as SMILES. Where two headings read alike, the source gives them in different places.

The term IC50 denotes the point on the concentration scale where inhibition reaches its midpoint.

T1 sequence (P41145 whole entry): as above
T5 sequence (P42866 whole entry): as the sequence (P42866 whole entry) above

In the case of `CN(C)Cc1nc(-c2cccc(C(C)(C)C)c2)n(-c2cccc(O)c2)n1` [DOP106, 3-[5-(3-tert-Butyl-phenyl)-3-dimethylaminomethyl-[1,2,4,]triazole-1-yl]-phenol], on human kappa receptor (setting [3]), the IC50 amounted to 341 ± 20 nM. Moreover, on delta receptor, the “Selectivity κ/δ” value was 7 and the “Selectivity μ/δ” value was 50. For the same molecule, the “Function at δ” value at δ-receptor [1] was “Agonist”.
Regarding `CN(C)Cc1nc(-c2ccc(C(C)(C)C)cc2)n(-c2cccc(O)c2)n1` [DOP108, 3-[5-(4-tert-Butyl-phenyl)-3-dimethylaminomethyl-[1,2,4,]triazole-1-yl]-phenol], at human kappa receptor (setting [3]), the half-inhibitory concentration (IC50) is 3850 ± 311 nM. In addition, the “Function at δ” value at δ-receptor [1] is on record as “Agonist”.
For `Cc1ccc(-c2nc(CN(C)C)nn2-c2cccc(O)c2)c(C)c1` [DOP110], the IC50 on human kappa receptor (setting [3]) was determined as 351 ± 95 nM. Also, at delta receptor, the “Selectivity κ/δ” value amounted to 1.3 and the “Selectivity μ/δ” value is recorded as 8.9. Besides, the “Function at δ” value at δ-receptor [1] was “Agonist”.
Consider `CN(C)c1nnc(-c2cccc(O)c2)n1-c1ccc(C(C)(C)C)cc1` [DST8S], for which the IC50 at human kappa receptor (setting [4]) stood at 2130 nM; at mu receptor, 991 nM; on delta receptor, 2780 nM.
Take `CN(C)c1nnc(-c2cccc(O)c2)n1-c1cccc(C(C)(C)C)c1` [DST10S]: the half-inhibitory concentration (IC50) at human kappa receptor (setting [4]) came out at 23 nM; on mu receptor it was 118 nM; on delta receptor, 114 nM. The “Function at the mu opioid receptor” value on mu opioid receptor was “moderate to strong antagonist”. Further, at kappa opioid receptor, the “Function at the kappa opioid receptor” value was “particularly strong agonist”. Also, the “Function at the delta opioid receptor” value on δ-receptor [1] (compound of Formula II, Table III) is reported as “moderate to strong antagonist”.
In the case of `C=CCN1C[C@H](C)N([C@H](c2ccc(C(=O)N(CC)CC)cc2)c2cccc(OC)c2)C[C@H]1C` [SNC80], at δ-receptor [2], the “Function at δ” value was “Agonist”.

(Values after US8188128B2, “Opioid receptor subtype-selective agents” (The University of Medicine and Dentistry of New Jersey, priority 2005, dated 2012).)
